What all share (assay type): biochemical
In one assay the target is T1, pCAF (Homo sapiens, UniProt Q92831).
T1 construct: purchased Reaction Biology Corp; host or cells: E. coli
The assay is described as follows: Histone acetyltransferase assay pCAF (Reaction Biology). Conditions: substrate Histone H3, replicates. The protocol:
The following […] assays (HDAC, SIRT1, PRMT1, PARP1, p300, pCAF) were performed by Reaction Biology Corp. FKK6 was screened at a single concentration of 10 μM in duplicate in two separate experiments. The appropriate controls for the individual assays are published. The overall […]
enzyme activity in the assay is reported as a % activity in DMSO control wells. Control IC50 […]
Briefly, for the Sirtuin (SIRT1) assay, human SIRT1 (GenBank
Accession No. NM012238) full -length N-terminal His-tag protein (MW 83.2 kDa) was purified after expression in E. coli. The reaction buffer was freshly prepared and constituted 50 mM Tris-HC l ( p H 8), 137 mM NaCl, 2.7 mM KCl, 1 mM MgCl2, and just before use, 1 mg/mL BSA and 1% DMSO was added. The substrate was a fluorogenic acetylated peptide of p53 residues 379-382 (RHKK (Ac)- AM C) . […]
8), 50 mM NaCl, 0.1 mM EDTA, 1 mM DTT, 1 mM PMSF, and 1% DMSO. […] The radioactivity in mixture is detected on washed filter paper using a scintillation counter. […]
Reader (Perkin Elmer) (Ex 360 nm/ Em 460 nm). For all enzyme activity assays, the percentage of enzyme activity (relative to DMSO controls) and IC50 values were calculated using GraphPad Prism 4 program (sigmoidal dose response equations). […]

The target of another assay is T2, HDAC3 (Homo sapiens, UniProt O15379).
T2 construct: purchased Reaction Biology Corp
The assay is described as follows: HDAC fluorescent activity assay. Conditions: substrate Peptide (Ac), replicates. The protocol:
(§1) The following […] assays (HDAC, SIRT1, PRMT1, PARP1, p300, pCAF) were performed by Reaction Biology Corp. FKK6 was screened at a single concentration of 10 μM in duplicate in two separate experiments. The appropriate controls for the individual assays are published. […]
(§2) The Histone Deacetylase (HDAC) fluorescent activity assay (HDAC1-3) is based on the using 2X purified human enzyme mixed with the reaction buffer (50 mM Tris-HCl pH 8, 137 mM NaCl, 2.7 mM KCl, and 1 mM MgCl2, 1 mg/mL fresh BSA and 1% fresh DMSO) and then compounds (in 100% DMSO) are titrated in using Acoustic Technology.
(§3) The 2X HDAC substrate is a fluorogenic acetylated peptide from p53 (residues 379 - 38 2 RHKK(Ac)AMC) which is mixed in with the enzyme-compound complex and incubated for 1-2 h at 30 °C. In the development step, a proprietary developer with trichostatin A (or TMP269) is added to stop the reaction and to generate fluorescent color which is read using an EnVision Multilabel Plate Reader (Perkin Elmer) (Ex 360 nm/ Em 460 nm). For all enzyme activity assays, the percentage of enzyme activity (relative to DMSO controls) and IC50 values were calculated using GraphPad Prism 4 program (sigmoidal dose response equations). […]
(§4) SMCT solution (0.32 M sucrose, 10 mM Tris -HCl, 1 mM MgCl2, 1 mM CaCl2, 0.1 mM PMSF and freshly prepared 1 mM DTT at pH 7.4) once in the presence of 0.25% Triton X-100 and once in its

Another assay has as its target T3, HDAC2 (Homo sapiens, UniProt Q92769).
T3 construct: purchased Reaction Biology Corp
The assay can be described thus: HDAC fluorescent activity assay. Conditions: substrate Peptide (Ac), replicates. The protocol:
as §1, §2, §3, §4

Another assay deals with T4, HDAC1 (Homo sapiens, UniProt Q13547).
T4 construct: purchased Reaction Biology Corp
The assay can be described thus: HDAC fluorescent activity assay. The following applies: substrate Peptide (Ac), replicates. The protocol:
as §1, §2, §3, §4

Setting [1] is: read-out: % Enzyme Activity to DMSO controls.

“And” between values parts separate entries of the source, which are not always exact repeats. Equal values may be shown once.

T2 sequence (O15379 whole entry): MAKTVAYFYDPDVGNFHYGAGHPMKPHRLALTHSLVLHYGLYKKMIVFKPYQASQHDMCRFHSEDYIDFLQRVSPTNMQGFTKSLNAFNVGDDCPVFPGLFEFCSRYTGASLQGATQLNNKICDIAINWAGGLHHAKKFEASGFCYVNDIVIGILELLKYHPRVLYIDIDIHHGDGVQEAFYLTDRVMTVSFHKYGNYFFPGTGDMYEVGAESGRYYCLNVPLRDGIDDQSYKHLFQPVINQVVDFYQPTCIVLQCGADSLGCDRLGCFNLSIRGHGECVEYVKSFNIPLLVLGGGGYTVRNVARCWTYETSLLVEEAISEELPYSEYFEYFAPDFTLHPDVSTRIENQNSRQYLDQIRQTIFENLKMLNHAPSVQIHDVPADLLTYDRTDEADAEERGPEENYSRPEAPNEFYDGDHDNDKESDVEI
T2 sequence (Q9Y618 395-489 partner limits assumed): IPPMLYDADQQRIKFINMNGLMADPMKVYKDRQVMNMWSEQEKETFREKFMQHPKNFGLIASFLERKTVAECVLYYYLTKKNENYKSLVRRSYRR
T1 sequence (Q92831 492-658): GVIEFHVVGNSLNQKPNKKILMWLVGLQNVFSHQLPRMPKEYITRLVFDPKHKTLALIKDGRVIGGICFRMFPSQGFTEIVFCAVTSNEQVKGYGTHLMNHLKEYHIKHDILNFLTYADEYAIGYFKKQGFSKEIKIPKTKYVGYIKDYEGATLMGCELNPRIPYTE
T4 sequence (Q13547 whole entry): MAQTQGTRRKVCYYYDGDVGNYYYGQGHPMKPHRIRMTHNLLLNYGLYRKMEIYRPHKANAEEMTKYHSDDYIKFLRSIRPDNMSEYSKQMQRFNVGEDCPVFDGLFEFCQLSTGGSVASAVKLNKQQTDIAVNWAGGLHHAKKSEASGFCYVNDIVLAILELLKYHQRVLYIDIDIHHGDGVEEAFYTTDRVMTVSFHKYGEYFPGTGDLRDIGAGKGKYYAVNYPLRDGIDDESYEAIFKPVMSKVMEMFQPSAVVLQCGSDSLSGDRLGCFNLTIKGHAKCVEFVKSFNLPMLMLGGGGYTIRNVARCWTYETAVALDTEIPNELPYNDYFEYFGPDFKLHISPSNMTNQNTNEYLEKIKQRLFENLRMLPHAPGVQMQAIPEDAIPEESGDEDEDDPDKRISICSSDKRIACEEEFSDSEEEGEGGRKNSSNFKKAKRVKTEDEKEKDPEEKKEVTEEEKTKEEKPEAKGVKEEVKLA
T3 sequence (Q92769 whole entry): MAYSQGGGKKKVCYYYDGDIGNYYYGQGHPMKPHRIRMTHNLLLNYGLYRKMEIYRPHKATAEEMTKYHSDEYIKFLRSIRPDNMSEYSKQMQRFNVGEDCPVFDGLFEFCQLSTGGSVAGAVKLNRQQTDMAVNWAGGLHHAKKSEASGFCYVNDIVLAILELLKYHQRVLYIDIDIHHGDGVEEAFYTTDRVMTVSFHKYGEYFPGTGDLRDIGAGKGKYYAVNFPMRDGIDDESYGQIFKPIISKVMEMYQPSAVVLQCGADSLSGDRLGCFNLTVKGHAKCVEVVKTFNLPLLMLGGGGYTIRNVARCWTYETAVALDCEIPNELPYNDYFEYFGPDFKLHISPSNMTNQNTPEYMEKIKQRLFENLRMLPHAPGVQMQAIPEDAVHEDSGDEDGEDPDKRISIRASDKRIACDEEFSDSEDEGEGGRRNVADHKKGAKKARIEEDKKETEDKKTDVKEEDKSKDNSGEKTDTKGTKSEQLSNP

Consider `C#CCC(O)(c1ccncc1)c1cc2ccccc2n1S(=O)(=O)c1ccccc1` (centres unmarked) [FKK6], for which the “% Enzyme Activity to DMSO controls” value at pCAF (10 μM) is 101.68% and 104.61% and 104.47%; at HDAC3 (10 μM) it was 116.9% and 114.05% and 107.82%; at HDAC2 (10 μM), 78.19% and 83.24% and 88.71%; at HDAC1 (10 μM), 101.46% and 89.76% and 86.7%. Moreover, the remaining activity at 10 µM was found to be 100% on pCAF (setting [1]), 122% on HDAC3 (setting [1]), 86.3% at HDAC2 (setting [1]) and 106% on HDAC1 (setting [1]).

Source of the values: article PMC7136958, “Targeting the pregnane X receptor using microbial metabolite mimicry” (EMBO Molecular Medicine, 2020).
